From patent publication US20050064524A1, “Population of cells utilizable for substance detection and methods and devices using same” (priority 2003, published 2005) come the findings set out here.

In assay [1] the test system is U937 cells. Briefly: Specificity of ROS probe DCFH-DA towards hydrogen peroxide and NO donor in labeled cells. It counts as cell-based. The conditions noted are these: FIGS. 22a-b. Here is the method: The pro-monocyte U937 cell line was used as cell culture model. Hydrogen peroxide was used as a source of ROS. Probe loading of cells was measured in bulk and at individual cell level. Probe concentration, loading time and cell washing were determined for the different ROS probes. The kinetics of ROS generation was measured in real time by monitoring sequentially the same individual cells. Photo toxicity induced by repeated excitations was checked. FIGS. 12-17, 18-19 and 20-21a-b show the ability of dihydrorhodamine 123 (DHR), dichlorodihydrofluorescein diacetate (DCFH-DA) and dihydroethidium (DHE), respectively, to detect ROS formation in U937 cells treated with hydrogen peroxide.
(§1) The specificity of DCFH-DA and DAF-2DA towards ROS and […] respectively, was tested.

The subject of assay [2] is U937 cells. Briefly: Intracellular NO measurement with DAF-2DA probe in labeled cells. It counts as cell-based. The conditions noted are these: for signal of cells labeled with DAF-2DA (NO probe): FIGS. 22a-b. The protocol: Fluorescent microscopy and imaging system—Olympus motorized upright epi-fluorescence BX51 microscope, equipped with motorized polarization filters for fluorescence polarization measurements was used. Cells were illuminated by a Mercury light source. The emitted fluorescence was imaged by CoolSNAP HQ monochrome CCD camera, or DVC-1312 (DVC Company, West Austin, Tex., USA) color camera. Digital image analysis of cellular fluorescence was performed by Image Pro plus software (Media Cybernetics. Inc. Silver Spring, Md.,USA).
Quantitative measurements of intracellular NO concentration in individual U937 cells were effected in response to incubation in the presence of the Diethylene triamine NONOate ([…]) donor (0.1-1 mM). The loading of cells with probe was measured in bulk at the individual cell level. Probe concentration loading time and cell washing were determined. The kinetic of NO generation was measured in real time by sequentially monitoring the same individual cells. Photo-toxicity induced by repeated excitations was checked and subtracted. Time response of NO generation in the presence or absence of DETA/NO donor (0.5 mM) in U937 cells labeled with DAF-2DA (10 μM, 15 min) is shown in FIG. 3. […] Quantitative measurements of intracellular NO levels in individual living cells labeled with DAF-2DA and treated with DETA/NO are shown in FIGS. 7a-b and 8a-b.
as §1

The subject of assay [3] is individual live cell. The conditions noted are these: hydrogen peroxide stimulus, FIG. 27.
Method: Measurement of intracellular ROS in live cells—The measurement of intracellular reactive oxygen species (ROS) levels was performed using the DHR123 (1-10 μM), DCFDA(1 μM) or DHE (2 μM) probes.
For probe loading, 100 μl of cells at a concentration of 1.52×10^6 cells/mL in PBS or in serum free media without phenol red were incubated in the presence of the various probes for 15 min at 37° C. and 5% CO2, and then washed twice in PBS and thereafter exposed to either LPC (10-20 μM), MTX (50 nM) or H2O2 (10-500 μM).

Regarding `NCCN(CCN)/[N+]([O-])=N/O` [DETA/NO, Diethylene triamine NONOate], the “signal of cells labeled with DCFH-DA (ROS probe)” value in assay [1] is on record as “only a minor response”. The “intracellular NO generation in U937 cells in response to donor” value in assay [2] (U937 cells labeled with DAF-2DA (10 μM, 15 min), donor 0.1-1 mM) is “accumulate NO”. Also, the “signal of cells labeled with DAF-2DA (NO probe)” value in assay [2] is “strong signal”.
For the compound `OO` [hydrogen peroxide], the “signal of cells labeled with DCFH-DA (ROS probe)” value in assay [1] is “strong and quantifiable signal”. In assay [2], the “signal of cells labeled with DAF-2DA (NO probe)” value was “background signal”. For the same compound, the “temporal relationship between ROS generation (DHR) and onset of changes in mitochondrial membrane potential (TMRM)” value in assay [3] is “Hyperpolarization of mitochondrial membrane potential preceded the increase in ROS level”.
